From patent publication US12514928B2, “Herboxidiene antibody-drug conjugates and methods of use” (Eisai R&D Management Co., Ltd., priority 2018, dated 2026)
Like-named read-outs stand apart in the source and are kept apart here.

How the values were obtained:
[1] = system: Ad2.2 pre-mRNA; assay: In vitro splicing (IVS) assay with HeLa nuclear extract, RT-qPCR of spliced product; type: biochemical; settings: payload, HELA.2, read-out: qPCR-IVS-ATS GMean IC50 (nM) Ad2.2 HELA.2
Procedure: 2.1 In Vitro Splicing (IVS)
To evaluate payload activity in a cell-free system, an in vitro splicing assay was performed. The payloads were incubated with nuclear extracts and pre-mRNA substrate minigenes.
HeLa nuclear extract preparation: HeLa S3 cell pellets were resuspended in hypotonic buffer (10 mM HEPES pH 7.9, 1.5 mM MgCl2, 10 mM KCl, 0.2 mM PMSF, 0.5 mM DTT) and the suspension was brought up to a total of 5 packed cell volume (PCV). After centrifugation, the supernatant was discarded, and the cells were brought up to 3 PCV with hypotonic buffer and incubated on ice for 10 min. Cells were lysed using a dounce homogenizer and then centrifuged. The supernatant was discarded, and the pellet was resuspended with […] packed nuclear volume (PNV) of low salt buffer (20 mM HEPES pH 7.9, 1.5 mM MgCl2, 20 mM KCl, 0.2 mM EDTA, 25% glycerol, 0.2 mM PMSF, 0.5 mM DTT), followed by 1/2 PNV of high salt buffer (same as low salt buffer except 1.4 M KCl). The nuclei were gently mixed for 30 min before centrifuging. The supernatant (nuclear extract) was then dialyzed into storage buffer (20 mM HEPES pH 7.9, 100 mM KCl, 0.2 mM EDTA, 20% glycerol, 0.2 mM PMSF, 0.5 mM DTT). Protein concentration was determined using NanoDrop 8000 UV-Vis spectrophotometer (ThermoFisher Scientific).
IVS: All Ad2-derived sequences (Pellizzoni et al. (1998) Cell 95(5):615-24) were cloned into pcDNA3.1(+) vector (Promega) using 5′ EcoRI and 3′ Xbal restriction sites. The plasmids were linearized using Xbal and used as DNA templates in in vitro transcription reactions. The FtzΔi intron-less plasmid (Luo and Reed (1999) 96(26):14937-42) was linearized using EcoRI. All RNAs were in vitro transcribed and then purified using MEGAScript T7 (Invitrogen) and MegaClear (Invitrogen) kits, respectively. For splicing reactions using Ad2 variant pre-mRNAs, […] were prepared using 8 μg nuclear extracts prepared from HeLa S3, 2 ng pre-mRNA, 0.2 ng FTZΔi, and varying concentrations of compounds or DMSO. After a 15 min pre-incubation at 30° C., 1 μL splicing activation buffer (0.5 mM ATP, 20 mM creatine phosphate, 1.6 mM MgCl2) was added, and the reactions were incubated for 90 min at 30° C. The reactions were then quenched with 13 μL DMSO, and 25 nL was used for RT-qPCR. RT-qPCR reactions were prepared using TaqMan RNA-to-CT 1-step kit (Life Technologies), RNA from splicing reactions, Ad2 (forward: […]; reverse: […]; probe: CTGTTGGGCTCGCGGTTG) and Ftz (forward: […]; reverse: […]; probe: […]) mRNA primer-probe sets. Prism 7 (Graphpad) was used for non-linear regression curve fitting of the formed spliced product and normalized to the control (DMSO) sample.

[2] = system: Ad2.1; assay: In vitro splicing (IVS) assay, qPCR-IVS-ATS, Ad2.1 substrate, HELA.2; type: biochemical; settings: payload, read-out: qPCR-IVS-ATS GMean IC50 (nM) Ad2.1 HELA.2
[3] = system: THP1.1; assay: Herboxidiene splicing modulator cell potency, CTGlo-ATS, THP1.1, 72 h; type: cell-based
[4] = Caco-2 permeability of ADC payload; type: in vitro ADME; settings: human; for Papp A→B at 2 h, 10 μM: apical to basolateral, read-out: Permeability Mean Caco-2 A-B Perm
Procedure: 3.5.2 Caco-2 Permeability of ADC Payload
Caco-2 cells were cultured for 21 days in transwell 24-well plates at 37° C., 95% humidity, 5% CO2. Integrity of cell monolayer was confirmed by TEER (transepithelial electrical resistance) and Lucifer yellow. Payloads were spiked in duplicate at 10 μM, separately, on both sides of the cell monolayer. Permeability rates from the apical to basolateral (A-B) direction and the basolateral to apical (B-A) direction were determined by sampling aliquots from both chambers immediately after treatment (t=0) and following incubation for 2 hours. Samples were protein precipitated with organic solvent containing internal standard and analyzed by LC-MS/MS (SCI EX; API 5500). The area ratio responses of payload/internal standard over time in both directions were used to generate permeability (cm/sec) values. Efflux ratio was calculated by dividing B-A/A-B. Control compounds for low and high permeability and efflux behaved as expected.

[5] = system: NCIH1650.1; assay: Herboxidiene splicing modulator cell potency, CTGlo-ATS, NCIH1650.1, 72 h; type: cell-based
[6] = biological target: SF3b complex (Homo sapiens, UniProt O75533+Q7RTV0); assay: Payload binding to the SF3b complex (SF3B1 binding); settings: SF3B1 (WT), HELA.2, read-out: SPA-ATS GMean IC50 (nM) SF3B1 (WT) HELA.2
Procedure: Exemplary herboxidiene spliceosome modulator payloads used in the preparation of ADCs were profiled. Payloads were evaluated for binding to the SF3b complex, in vitro splicing activity, and ability to inhibit cell growth.

[7] = Chemical stability of ADC payload in Mcilvane buffer pH 5.5; type: physicochemical; settings: payload 20 μM, pH 5.5, 37° C.
Procedure: 3.5.3 Chemical Stability of ADC Payload
Herboxidiene splicing modulators were incubated in Mcilvane (Citrate-Phosphate) buffer, pH 5.5 (Boston Bioproducts; #BB-2466) at a final concentration of 20 μM (less than 0.5% DMSO from stock solution). The herboxidiene splicing modulator solution and the internal standard were pipetted into 96-well plates, ran on UPLC (Waters Acquity H class), and analyzed for initial chromatographic signal (t=0). The column was a Waters UPLC HSS T3 1.8 μm 2.1×50 mm column (#186003538). A gradient of mobile phase A from 95% to 10% was employed over 1 min, where A was 0.1% formic acid in water and mobile phase B was 0.1% formic acid in acetonitrile (flow rate 0.9 mL/min). The remainder of the herboxidiene splicing modulator solution was kept in a plate shaker at 37° C. (Eppendorf ThermoMixer). Sample analyses by UPLC were repeated at 24, 72, and 96 hours post-incubation at 37° C. The area ratio response of the herboxidiene splicing modulator and internal standard was determined for three time points: time 0, day 1, and either day 3 or day 4. Time 0 was set to 100. The area ratio responses of the later time points were compared to time 0. Percent remaining was calculated as follows: (Area Ratio day X/Area Ratio time 0)*100=% remaining. The slope of the line was calculated in Excel comparing the log of % remaining and time point.

[8] = read-out: CTGIo-ATS GMean GI50 (nM) 72 h THP1.1
[9] = read-out: CTGIo-ATS GMean GI50 (nM) 72 h NCIH1650.1

SMILES | IC50 [1] [nM] | IC50 [2] [nM] | CTGIo-ATS GMean LD50 (nM) 72 h THP1.1 ([3]; payload) [nM] | CTGIo-ATS Mean MinResponse % 72 h THP1.1 ([3]; payload) [%] | GI50 [3, 8] [nM] | Papp A→B at 2 h, 10 μM ([4]; payload at 10 μM, 2 hours) [nm/s] | CTGIo-ATS GMean LD50 (nM) 72 h NCIH1650.1 ([5]; payload) [nM] | CTGIo-ATS Mean MinResponse % 72 h NCIH1650.1 ([5]; payload) [%] | GI50 [5, 9] [nM] | IC50 [6] [nM] | efflux ratio at 2 h, 10 μM ([4]; efflux ratio, B-A/A-B, read-out: ER) | Papp B→A at 2 h, 10 μM ([4]; payload at 10 μM, 2 hours, head incomplete (column between A-B and ER)) [nm/s] | half-life at 20 μM ([7]; McIlvaine (citrate-phosphate) buffer, read-out: Stability Mean Stability t½ pH 5.5 (converted)) [h] | Stability Mean Stability % pH 5.5 t 24 h ([7]; % remaining at 24 h) [%] | GI50 ([3]; payload, THP1.1, read-out: CTGIo-ATS GMean GI50 (nM) 72 h THP1.1) [nM] | GI50 ([5]; payload, NCIH1650.1, read-out: CTGIo-ATS GMean GI50 (nM) 72 h NCIH1650.1) [nM]
CO[C@H]([C@@H](C)[C@H]1O[C@]1(C)C[C@H](C)/C=C/C=C(\C)[C@H]1O[C@@H](CC(=O)N[C@@H](CCCOC(=O)N2CCNCC2)C(=O)O)CC[C@@H]1C)[C@@H](C)O [Compound H4, (S)-2-(2-((2R,5S,6S)-6-((S,2E,4E)-7-((2R,3R)-3-((2R,3R,4R)-4-hydroxy-3-methoxypentan-2-yl)-2-methyloxiran-2-yl)-6-methylhepta-2,4-dien-2-yl)-5-methyltetrahydro-2H-pyran-2-yl)acetamido)-5-((piperazine-1-carbonyl)oxy)pentanoic acid] | 29.6 | 31.6 | 5337.399 | −40.902 | 649 | 193 | 2575.18 | 728.583 | 464 | 14.5 |  |  |  |  |  | 
CO[C@H]([C@@H](C)[C@H]1O[C@]1(C)C[C@H](C)/C=C/C=C(\C)[C@H]1O[C@@H](CNC(=O)CCCCCOC(=O)N2CCCNCC2)CC[C@@H]1C)[C@@H](C)O [Compound H6, 6-((((2R,5S,6S)-6-((S,2E,4E)-7-((2R,3R)-3-((2R,3R,4R)-4-hydroxy-3-methoxypentan-2-yl)-2-methyloxiran-2-yl)-6-methylhepta-2,4-dien-2-yl)-5-methyltetrahydro-2H-pyran-2-yl)methyl)amino)-6-oxohexyl 1,4-diazepane-1-carboxylate] | 7.19 | 9.51 | 6.522 | −101.275 | 0.701 | 57.2 | 1.336 | 0.978 | 0.219 |  |  |  |  |  |  | 
CO[C@H]([C@@H](C)[C@H]1O[C@]1(C)C[C@H](C)/C=C/C=C(\C)[C@H]1O[C@@H](CC(=O)O)C[C@@H](OC(=O)N2CCNCC2)[C@@H]1C)[C@@H](C)O [Compound H1, 2-((2R,4R,5S,6S)-6-((S,2E,4E)-7-((2R,3R)-3-((2R,3R,4R)-4-hydroxy-3-methoxypentan-2-yl)-2-methyloxiran-2-yl)-6-methylhepta-2,4-dien-2-yl)-5-methyl-4-((piperazine-1-carbonyl)oxy)tetrahydro-2H-pyran-2-yl)acetic acid] | 33.7 | 72.6 | 697.273 | −84.238 | 114 | 2.63 | >10000 | 10.179 | 182 | 11.7 | 1.27 | 3.34 | 84 | 79 |  | 
CO[C@H]([C@@H](C)[C@H]1O[C@]1(C)C[C@H](C)/C=C/C=C(\C)[C@H]1O[C@@H](CNC(=O)CCOCCOC(=O)N2CCNCC2)CC[C@@H]1C)[C@@H](C)O [Compound H8, 2-(3-((((2R,5S,6S)-6-((S,2E,4E)-7-((2R,3R)-3-((2R,3R,4R)-4-hydroxy-3-methoxypentan-2-yl)-2-methyloxiran-2-yl)-6-methylhepta-2,4-dien-2-yl)-5-methyltetrahydro-2H-pyran-2-yl)methyl)amino)-3-oxopropoxy)ethyl piperazine-1-carboxylate] | 12.9 | 12.9 | 11.851 | −102.030 |  |  | >10000 | 17.053 |  |  |  |  |  |  | 1.22 | 1.1
CO[C@H]([C@@H](C)[C@H]1O[C@]1(C)C[C@H](C)/C=C/C=C(\C)[C@H]1O[C@@H](CNC(=O)CCOCCOC(=O)N2CCCNCC2)CC[C@@H]1C)[C@@H](C)O [Compound H9, 2-(3-((((2R,5S,6S)-6-((S,2E,4E)-7-((2R,3R)-3-((2R,3R,4R)-4-hydroxy-3-methoxypentan-2-yl)-2-methyloxiran-2-yl)-6-methylhepta-2,4-dien-2-yl)-5-methyltetrahydro-2H-pyran-2-yl)methyl)amino)-3-oxopropoxy)ethyl 1,4-diazepane-1-carboxylate] | 8.66 | 9.68 | 14.441 | −101.645 | 1.34 | 116 | 2.681 | 2.327 | 0.481 |  |  |  |  |  |  | 
